Where a name gives a salt, the structure may show the parent alone.

T1 sequence (Q63380 1-617): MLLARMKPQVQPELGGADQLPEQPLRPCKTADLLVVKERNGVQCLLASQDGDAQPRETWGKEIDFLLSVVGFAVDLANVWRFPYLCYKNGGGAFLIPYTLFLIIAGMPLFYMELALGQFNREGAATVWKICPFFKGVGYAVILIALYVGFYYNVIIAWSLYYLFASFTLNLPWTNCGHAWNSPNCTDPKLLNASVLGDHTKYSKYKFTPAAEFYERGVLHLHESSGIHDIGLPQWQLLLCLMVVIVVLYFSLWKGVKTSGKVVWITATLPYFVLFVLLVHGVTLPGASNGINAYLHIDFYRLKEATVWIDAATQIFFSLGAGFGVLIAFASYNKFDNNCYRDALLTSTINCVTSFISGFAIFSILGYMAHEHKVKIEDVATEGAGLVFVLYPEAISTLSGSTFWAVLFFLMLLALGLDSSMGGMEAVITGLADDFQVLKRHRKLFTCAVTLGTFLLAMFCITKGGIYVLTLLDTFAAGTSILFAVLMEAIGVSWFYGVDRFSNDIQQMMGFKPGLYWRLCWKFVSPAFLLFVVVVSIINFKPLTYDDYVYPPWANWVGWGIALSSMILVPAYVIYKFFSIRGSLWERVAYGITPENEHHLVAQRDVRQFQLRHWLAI
T2 sequence (P31652 whole entry): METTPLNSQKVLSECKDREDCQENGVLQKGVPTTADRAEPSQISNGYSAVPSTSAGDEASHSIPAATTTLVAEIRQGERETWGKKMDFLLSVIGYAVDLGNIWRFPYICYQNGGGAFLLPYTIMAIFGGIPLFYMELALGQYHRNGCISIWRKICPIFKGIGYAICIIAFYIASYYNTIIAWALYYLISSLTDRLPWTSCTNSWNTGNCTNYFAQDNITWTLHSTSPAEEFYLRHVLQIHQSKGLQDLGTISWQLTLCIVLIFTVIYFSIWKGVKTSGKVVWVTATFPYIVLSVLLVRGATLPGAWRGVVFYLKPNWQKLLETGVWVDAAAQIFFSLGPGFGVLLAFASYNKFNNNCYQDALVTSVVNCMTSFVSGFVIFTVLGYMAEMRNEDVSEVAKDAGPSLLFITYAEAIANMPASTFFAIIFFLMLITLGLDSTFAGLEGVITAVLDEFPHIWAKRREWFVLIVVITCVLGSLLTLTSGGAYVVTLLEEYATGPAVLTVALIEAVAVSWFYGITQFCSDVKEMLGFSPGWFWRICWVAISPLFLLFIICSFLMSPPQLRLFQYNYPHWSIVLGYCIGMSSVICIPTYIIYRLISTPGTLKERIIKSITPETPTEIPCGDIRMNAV

One data set concerns the target T1, NE reuptake (NE transporter) (Rattus norvegicus, UniProt Q63380).
T1 construct: from tissue; host or cells: Wistar rat brain (procerebrum; crude synaptosomal supernatant)
The data set can be described thus: Inhibition of NE reuptake in rat brain synaptosome (3H-NE uptake). The class given is biochemical. To be noted: 10 μM, read-out: NE reuptake percent inhibition. The protocol:
(§1) All the target compounds were evaluated for their inhibitory activity against the reuptake of 5-HT and NE at the cellular level. Rat brain tissue was used for the uptake test, which included ^3H-5-HT and ^3H-NE [15]. 1-[7,8-^3H]-Noradrenaline and 5-hydroxy-[^3H]-tryptamine trifluoroacetate were obtained from Amersham Corporation.
(§2) Adult male Wistar rats were used. Animals were killed by decapitation and the whole brain, with the exception of the brainstem and cerebellum, was quickly removed. The procerebrum region was prepared, weighed, and homogenized in 10 volumes of ice-cold 0.32 mol/L sucrose solution using a glass homogenizer. The homogenate was centrifuged at 1000× g and 4 °C for 10 min. The supernatant was decanted and used for the uptake experiments. […] For each assay, three tubes were incubated with the vehicle (20 µL) at 0 °C in an ice bath. After incubation, the tubes were immediately filtered with a cell harvester. The fiberglass filter membrane was washed three times with ice-cold saline, placed in a scintillation vial, and counted in liquid scintillation cocktail (4 mL). Active uptake was the difference between the counts per minute at 37 and 0 °C. The percent inhibition at each drug concentration was the mean of three measurements.
As usually defined, the inhibition is the relative decrease from the control value, in per cent. As to `COc1ccc(/C(=N\Cc2ccccc2)N2CCNCC2)cc1.Cl` [Compound I-1, (E)-N-((4-Methoxyphenyl)(piperazin-1-yl)methylene)-1-phenylmethanamine hydrochloride], the inhibition at 10 µM came to 67%.

System in another data set: not given
Assay: not given
Settings: not given
In general, melting point refers to the temperature, or range, at which the solid turns liquid. Compound `Clc1cccc(/C(=N\Cc2ccccc2)N2CCNCC2)c1` (as salt: hydrochloride) [Compound I-4, (E)-N-((3-Chlorophenyl)(piperazin-1-yl)methylene)-1-phenylmethanaminehydrochloride] gave a melting point of 235 to 237 °C. On to `Clc1ccc(/C(=N\Cc2ccccc2)N2CCNCC2)cc1` (as salt: hydrochloride) [Compound I-5, (E)-N-((4-Chlorophenyl)(piperazin-1-yl)methylene)-1-phenylmethanaminehydrochloride], for which the melting point fell in the range of 182 to 184 °C. The same measure, in the same setting: under `Fc1ccc(/C(=N\Cc2ccccc2)N2CCNCC2)cc1` (as salt: hydrochloride) [Compound I-6, (E)-N-((4-Fluorophenyl)(piperazin-1-yl)methylene)-1-phenylmethanaminehydrochloride] stands 220 to 222 °C. `Fc1ccccc1/C(=N\Cc1ccccc1)N1CCNCC1` (as salt: hydrochloride) [Compound I-7, (E)-N-((2-Fluorophenyl)(piperazin-1-yl)methylene)-1-phenylmethanaminehydrochloride]: the melting point lay in the range of 182 to 184 °C.

In turn, `N#Cc1ccc(/C(=N\Cc2ccccc2)N2CCNCC2)cc1` (as salt: hydrochloride) [Compound I-8, (E)-4-((Benzylimino)(piperazin-1-yl)methyl)benzonitrilehydrochloride] yielded a melting point of 205 to 207 °C. As to `N#Cc1cccc(/C(=N\Cc2ccccc2)N2CCNCC2)c1` (as salt: hydrochloride) [Compound I-9, (E)-3-((Benzylimino)(piperazin-1-yl)methyl)benzonitrilehydrochloride], the melting point lay within 190 to 192 °C.

`Cc1ccc(/C(=N\Cc2ccccc2)N2CCNCC2)cc1` (as salt: hydrochloride) [Compound I-10, (E)-1-Phenyl-N-(piperazin-1-yl(p-tolyl)methylene)methanaminehydrochloride] came in with a melting point of 172 to 174 °C.

`O=[N+]([O-])c1ccc(/C(=N\Cc2ccccc2)N2CCNCC2)c(Cl)c1` (as salt: hydrochloride) [Compound I-11, (E)-N-((2-Chloro-4-nitrophenyl)(piperazin-1-yl)methylene)-1-phenylmethanaminehydrochloride] returned a melting point of 195 to 197 °C. `O=[N+]([O-])c1ccc(/C(=N\Cc2ccc(Cl)cc2)N2CCNCC2)cc1` (as salt: hydrochloride) [Compound I-12, (E)-1-(4-Chlorophenyl)-N-((4-nitrophenyl)(piperazin-1-yl)methylene)methanaminehydrochloride] registered a melting point of 172 to 174 °C. For the compound `Clc1ccc(C/N=C(\c2ccccc2Cl)N2CCNCC2)cc1` (as salt: hydrochloride) [Compound I-13, (E)-1-(4-Chlorophenyl)-N-((2-chlorophenyl)(piperazin-1-yl)methylene)methanaminehydrochloride], the melting point was 181 to 183 °C.

Regarding `Clc1ccc(C/N=C(\c2cccc(Cl)c2)N2CCNCC2)cc1` (as salt: hydrochloride) [Compound I-14, (E)-1-(4-Chlorophenyl)-N-((3-chlorophenyl)(piperazin-1-yl)methylene)methanaminehydrochloride], the melting point was 218 to 220 °C. Consider `Clc1ccc(C/N=C(\c2ccc(Cl)cc2)N2CCNCC2)cc1` (as salt: hydrochloride) [Compound I-15, (E)-1-(4-Chlorophenyl)-N-((4-chlorophenyl)(piperazin-1-yl)methylene)methanaminehydrochloride], for which the melting point lay in the range of 157 to 159 °C. In the case of `Fc1ccc(/C(=N\Cc2ccc(Cl)cc2)N2CCNCC2)cc1` (as salt: hydrochloride) [Compound I-16, (E)-1-(4-Chlorophenyl)-N-((4-fluorophenyl)(piperazin-1-yl)methylene)methanaminehydrochloride], the melting point was 165 to 167 °C. In the case of `Fc1ccccc1/C(=N\Cc1ccc(Cl)cc1)N1CCNCC1` (as salt: hydrochloride) [Compound I-17, (E)-1-(4-Chlorophenyl)-N-((2-fluorophenyl)(piperazin-1-yl)methylene)methanaminehydrochloride], the melting point is 215 to 217 °C.

`N#Cc1ccc(/C(=N\Cc2ccc(Cl)cc2)N2CCNCC2)cc1` (as salt: hydrochloride) [Compound I-18, (E)-1-(4-Chlorophenyl)-N-((4-cyanophenyl)(piperazin-1-yl)methylene)methanaminehydrochloride] registered a melting point of 180 to 182 °C. In the case of `Cc1ccc(/C(=N\Cc2ccc(Cl)cc2)N2CCNCC2)cc1` (as salt: hydrochloride) [Compound I-20, (E)-1-(4-Chlorophenyl)-N-(piperazin-1-yl(p-tolyl)methylene)methanaminehydrochloride], the melting point is 183 to 185 °C.

Consider `COc1ccc(C/N=C(\c2ccc([N+](=O)[O-])cc2)N2CCNCC2)cc1` (as salt: hydrochloride) [Compound I-21, (E)-1-(4-Methoxyphenyl)-N-((4-nitrophenyl)(piperazin-1-yl)methylene)methanaminehydrochloride], for which the melting point lay in the range of 210 to 212 °C.

For the compound `c1ccc(/C(=N\Cc2cccc3ccccc23)N2CCNCC2)cc1` (as salt: hydrochloride) [II-1, (E)-1-(Naphthalen-1-yl)-N-(phenyl(piperazin-1-yl)methylene)methanaminehydrochloride], the melting point was 187 to 189 °C. Still for that read-out and setting: as for `O=[N+]([O-])c1ccc(/C(=N\Cc2cccc3ccccc23)N2CCNCC2)cc1` (as salt: hydrochloride) [II-2, (E)-1-(Naphthalen-1-yl)-N-((4-nitrophenyl)(piperazin-1-yl)methylene)methanaminehydrochloride], the figure is 202 to 204 °C. As for `Fc1ccc(/C(=N\Cc2cccc3ccccc23)N2CCNCC2)cc1` (as salt: hydrochloride) [II-3, (E)-N-((4-Fluorophenyl)(piperazin-1-yl)methylene)-1-(naphthalen-1-yl)methanaminehydrochloride], the melting point was in the range of 193 to 195 °C. `Clc1cccc(/C(=N\Cc2cccc3ccccc23)N2CCNCC2)c1` (as salt: hydrochloride) [II-6, (E)-N-((3-Chlorophenyl)(piperazin-1-yl)methylene)-1-(naphthalen-1-yl)methanaminehydrochloride] displayed a melting point of 198 to 200 °C. The same measure, in the same setting: as for `Clc1ccc(/C(=N\Cc2cccc3ccccc23)N2CCNCC2)cc1` (as salt: hydrochloride) [II-7, (E)-N-((4-Chlorophenyl)(piperazin-1-yl)methylene)-1-(naphthalen-1-yl)methanaminehydrochloride], the figure is 210 to 212 °C; as for `N#Cc1ccc(/C(=N\Cc2cccc3ccccc23)N2CCNCC2)cc1` (as salt: hydrochloride) [II-8, (E)-4-(((Naphthalen-1-ylmethyl)imino)(piperazin-1-yl)methyl)benzonitrilehydrochloride], 158 to 160 °C. Same read-out and setting: as for `N#Cc1cccc(/C(=N\Cc2cccc3ccccc23)N2CCNCC2)c1` (as salt: hydrochloride) [II-9, (E)-3-(((Naphthalen-1-ylmethyl)imino)(piperazin-1-yl)methyl)benzonitrilehydrochloride], the figure is 168 to 170 °C. Regarding `Cc1ccc(/C(=N\Cc2cccc3ccccc23)N2CCNCC2)cc1` (as salt: hydrochloride) [II-10, (E)-1-(Naphthalen-1-yl)-N-(piperazin-1-yl(p-tolyl)methylene)methanaminehydrochloride], the melting point was in the range of 178 to 180 °C.

Take `O=[N+]([O-])c1cccc2c(/C(=N\Cc3ccccc3)N3CCNCC3)cccc12` (as salt: hydrochloride) [III-1, (E)-N-((5-Nitronaphthalen-1-yl)(piperazin-1-yl)methylene)-1-phenylmethanaminehydrochloride]: the melting point lay in the range of 173 to 175 °C. Still for that read-out and setting: as for `COc1ccc(/C(=N\Cc2ccccc2)N2CCNCC2)cc1.Cl` [Compound I-1, (E)-N-((4-Methoxyphenyl)(piperazin-1-yl)methylene)-1-phenylmethanamine hydrochloride], the figure is 195 to 197 °C.

The next data set has as its target T2, 5-HT reuptake (5-HT transporter) (Rattus norvegicus, UniProt P31652).
T2 construct: from tissue; host or cells: Wistar rat brain (procerebrum; crude synaptosomal supernatant)
The data set can be described thus: Inhibition of 5-HT reuptake in rat brain synaptosome (3H-5-HT uptake). In kind it is biochemical. Conditions: 10 μM, read-out: 5-HT reuptake percent inhibition. The protocol:
as §1, §2
Turning to `COc1ccc(/C(=N\Cc2ccccc2)N2CCNCC2)cc1.Cl` [Compound I-1, (E)-N-((4-Methoxyphenyl)(piperazin-1-yl)methylene)-1-phenylmethanamine hydrochloride], the inhibition at 10 µM stood at 65%.
